Laboratory results published in PubChem BioAssay (NCI).
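Results reflect a 48-hour exposure of cells in 96-well plates to compound at five concentrations. TGI denotes the concentration required for complete inhibition of growth.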

What was measured:
Experiment in all cases: NCI tumour cell line growth inhibition, 48 h
[1] = test system: HOP-62 NSCLC
[2] = test system: 786-0 renal
[3] = test system: ACHN renal
[4] = test system: SNB-78 CNS
[5] = test system: SK-MEL-2 melanoma
[6] = test system: OVCAR-4 ovarian
[7] = test system: DMS 273 small cell lung
[8] = test system: HCT-116 colon
[9] = test system: XF 498 CNS
[10] = test system: LXFL 529 NSCLC
[11] = test system: SR leukemia
[12] = test system: UACC-62 melanoma
[13] = test system: DLD-1 colon
[14] = test system: UO-31 renal
[15] = test system: SF-268 CNS
[16] = test system: HCC-2998 colon
[17] = test system: M14 melanoma
[18] = test system: NCI-H23 lung
[19] = test system: K-562 leukemia
[20] = test system: MALME-3M melanoma
[21] = test system: SF-539 CNS
[22] = test system: IGROV1 ovarian
[23] = test system: SK-OV-3 ovarian
[24] = test system: SNB-75 CNS
[25] = test system: HL-60(TB) leukemia
[26] = test system: NCI-H522 lung
[27] = test system: M19-MEL melanoma
[28] = test system: CCRF-CEM leukemia
[29] = test system: COLO 205 colon
[30] = test system: RPMI-8226 leukemia
[31] = test system: CAKI-1 renal
[32] = test system: HOP-92 NSCLC
[33] = test system: DMS 114 small cell lung
[34] = test system: A498 renal
[35] = test system: NCI-H226 lung
[36] = test system: SN12C renal
[37] = test system: SK-MEL-28 melanoma
[38] = test system: MOLT-4 leukemia
[39] = test system: HT29 colon
[40] = test system: HCT-15 colon
[41] = test system: SF-295 CNS
[42] = test system: SW-620 colon
[43] = test system: HOP-18 NSCLC
[44] = test system: EKVX NSCLC
[45] = test system: NCI-H460 lung
[46] = test system: A549 NSCLC
[47] = test system: RXF 393 renal
[48] = test system: OVCAR-5 ovarian
[49] = test system: SNB-19 CNS
[50] = test system: OVCAR-3 ovarian
[51] = test system: UACC-257 melanoma
[52] = test system: U251 CNS
[53] = test system: OVCAR-8 ovarian
[54] = test system: KM20L2 colon

Cc1ncc(CBr)c(CBr)c1O
TGI [1]: > 100 µM
TGI [2]: > 100 µM
TGI [3]: > 100 µM
TGI [4]: > 100 µM
TGI [5]: > 100 µM
TGI [6]: > 100 µM
TGI [7]: > 100 µM
TGI [8]: > 100 µM
TGI [9]: > 100 µM
TGI [10]: > 100 µM
TGI [11]: > 100 µM
TGI [12]: > 100 µM
TGI [13]: > 100 µM
TGI [14]: > 100 µM
TGI [15]: > 100 µM
TGI [16]: > 100 µM
TGI [17]: > 100 µM
TGI [18]: > 100 µM
TGI [19]: > 100 µM
TGI [20]: > 100 µM
TGI [21]: > 100 µM
TGI [22]: > 100 µM
TGI [23]: > 100 µM
TGI [24]: > 100 µM
TGI [25]: > 100 µM
TGI [26]: > 100 µM
TGI [27]: > 100 µM
TGI [28]: > 100 µM
TGI [29]: > 100 µM
TGI [30]: > 100 µM
TGI [31]: > 100 µM
TGI [32]: > 100 µM
TGI [33]: > 100 µM
TGI [34]: > 100 µM
TGI [35]: > 100 µM
TGI [36]: > 100 µM
TGI [37]: > 100 µM
TGI [38]: > 100 µM

O=C(Cc1nc2ccccc2o1)C(=O)Nc1ccc(Cl)cc1Cl
TGI [1]: > 100 µM
TGI [2]: > 100 µM
TGI [3]: > 100 µM
TGI [39]: > 100 µM
TGI [40]: > 100 µM
TGI [4]: > 100 µM
TGI [5]: > 100 µM
TGI [41]: > 100 µM
TGI [6]: > 100 µM
TGI [7]: > 100 µM
TGI [8]: > 100 µM
TGI [42]: > 100 µM
TGI [10]: > 100 µM
TGI [43]: > 100 µM
TGI [11]: 51.6 µM
TGI [12]: > 100 µM
TGI [13]: > 100 µM
TGI [14]: > 100 µM
TGI [44]: > 100 µM
TGI [15]: > 100 µM
TGI [16]: > 100 µM
TGI [17]: > 100 µM
TGI [45]: > 100 µM
TGI [18]: > 100 µM
TGI [19]: > 100 µM
TGI [20]: > 100 µM
TGI [21]: > 100 µM
TGI [22]: > 100 µM
TGI [23]: > 100 µM
TGI [46]: > 100 µM
TGI [24]: > 100 µM
TGI [47]: > 100 µM
TGI [48]: > 100 µM
TGI [49]: > 100 µM
TGI [27]: > 100 µM
TGI [50]: > 100 µM
TGI [29]: > 100 µM
TGI [30]: > 100 µM
TGI [31]: > 100 µM
TGI [32]: > 100 µM
TGI [51]: > 100 µM
TGI [33]: > 100 µM
TGI [52]: > 100 µM
TGI [34]: > 100 µM
TGI [35]: > 100 µM
TGI [36]: > 100 µM
TGI [37]: > 100 µM
TGI [53]: > 100 µM
TGI [54]: > 100 µM
